Laboratory results taken from US20230141569A1, “FLUORESCENT DYE, AND PREPARATION METHOD AND USES THEREOF” (FLUORESCENCE DIAGNOSIS (SHANGHAI) BIOTECH COMPANY LTD., priority 2020, published 2023).

How the values were obtained:
RNA aptamer [1] = experiment: Labeling intracellular RNA aptamer in cells (Test Example 4, FIG. 20A/20B); type: cell-based; conditions: for fluorescence of cells expressing the RNA aptamer: FIG. 20A; for fluorescence of cells not expressing the RNA aptamer: FIG. 20B
Source text: FIGS. 20A and 20B are the application of molecular rotors IV-1, IV-2, IV-3, IV-4, IV-5, IV-6, IV-17, IV-18, IV-19, IV-20, IV-21, IV-22 in labeling intracellular RNA aptamer, wherein FIG. 20A are cells expressing the target RNA aptamer, and FIG. 20B are cells not expressing the target RNA aptamer;

[2] = Viscosity response: fluorescence in glycerin vs methanol (Test Example 1); type: physicochemical; conditions: final concentration 1×10^−5 M; for Glycerin/Methanol Fluorescence Intensity Ratio: excited at maximum excitation wavelength of each dye; for Maximum Excitation Wavelength (nm): glycerin and methanol
[3] = Fluorescence emission at different viscosity conditions, diethanol-glycerol mixed solution (Test Example 2); type: physicochemical; conditions: 1×10^−5 M, excited at 480 nm
RNA aptamer [4] = experiment: Optical properties after binding to RNA aptamer (Test Example 4); type: biochemical; conditions: for Em/nm / Ex/nm / ε / QY (−): after binding to RNA aptamer; for QY (−): relative method with Rhodamine 6G as the standard; for compound fluorescence after binding to RNA aptamer: excited at a suitable wavelength
mRNA of ACTB = experiment: Flow detection of mRNA labeling in 293T/17 cells (Test Example 5); type: cell-based; conditions: 0.2 μM in PBS, 5 minutes incubation; for background fluorescence in flow detection: 293T/17 control cells
Source text: FIGS. 21A and 21B are a flow detection diagram for molecular rotors IV-21 and IV-41 for labeling mRNA.

Glycerin/Methanol Fluorescence Intensity Ratio [2]	Maximum Excitation Wavelength (nm) [2]	Em/nm (RNA aptamer [4])	Ex/nm (RNA aptamer [4])	ε (RNA aptamer [4])	QY (−) (RNA aptamer [4])	compound fluorescence after binding to RNA aptamer (RNA aptamer [4])	SMILES	fluorescence of cells expressing the RNA aptamer (RNA aptamer [1])	fluorescence of cells not expressing the RNA aptamer (RNA aptamer [1])	fluorescence intensity at different viscosity conditions [3]	labeling of mRNA of ACTB in cell lines expressing target RNA (mRNA of ACTB; 293T/17, flow detection)	background fluorescence in flow detection (mRNA of ACTB)
921	578 nm	578 nm	490 nm	24000 M⁻¹ cm⁻¹	0.37	noticeably activated	CN1C(=O)/C(=C/c2cc(F)c(O)c(F)c2)N=C1/C=C/c1cccc(F)c1 [IV-6]	bright fluorescence	no fluorescence	gradually increasing fluorescence intensity	–	–
655	575 nm	582 nm	524 nm	32000 M⁻¹ cm⁻¹	0.47	noticeably activated	CN1C(=O)/C(=C/c2ccc(N(C)CCO)cc2)N=C1/C=C/c1cccc(O)c1 [IV-17]	bright fluorescence	no fluorescence	gradually increasing fluorescence intensity	–	–
821	577 nm	590 nm	522 nm	30000 M⁻¹ cm⁻¹	0.43	noticeably activated	CN1C(=O)/C(=C/c2ccc(N(C)CCO)cc2)N=C1/C=C/c1cccc(F)c1 [IV-19]	bright fluorescence	no fluorescence	gradually increasing fluorescence intensity	–	–
689	580 nm	580 nm	522 nm	32000 M⁻¹ cm⁻¹	0.46	noticeably activated	CN1C(=O)/C(=C/c2ccc(N(C)CCO)cc2)N=C1/C=C/c1ccc(F)cc1 [IV-22]	bright fluorescence	no fluorescence	gradually increasing fluorescence intensity	–	–
–	–	–	–	–	–	–	CN1C(=O)/C(=C/c2ccc(N(C)CCO)cc2)N=C1/C=C/c1ccccc1 [IV-41, reference compound]	–	–	–	–	higher than that of IV-21

SMILES	Glycerin/Methanol Fluorescence Intensity Ratio [2]	Maximum Excitation Wavelength (nm) [2]	Em/nm (RNA aptamer [4])	Ex/nm (RNA aptamer [4])	ε (RNA aptamer [4])	QY (−) (RNA aptamer [4])	compound fluorescence after binding to RNA aptamer (RNA aptamer [4])	fluorescence of cells expressing the RNA aptamer (RNA aptamer [1])	fluorescence of cells not expressing the RNA aptamer (RNA aptamer [1])	fluorescence intensity at different viscosity conditions [3]	labeling of mRNA of ACTB in cell lines expressing target RNA (mRNA of ACTB; 293T/17, flow detection)	background fluorescence in flow detection (mRNA of ACTB)
CN1C(=O)/C(=C/c2ccc(N(C)CCO)cc2)N=C1/C=C/c1cccc(C#N)c1 [IV-18]	890	595 nm	600 nm	536 nm	25000 M⁻¹ cm⁻¹	0.43	noticeably activated	bright fluorescence	no fluorescence	gradually increasing fluorescence intensity	–	–
CN1C(=O)/C(=C/c2ccc(N(C)CCO)cc2)N=C1/C=C/c1ccc(O)cc1 [IV-20]	781	577 nm	577 nm	512 nm	25500 M⁻¹ cm⁻¹	0.36	noticeably activated	bright fluorescence	no fluorescence	gradually increasing fluorescence intensity	–	–
CN1C(=O)/C(=C/c2ccc(N(C)CCO)cc2)N=C1/C=C/c1ccc(C#N)cc1 [IV-21]	655	624 nm	624 nm	534 nm	26222 M⁻¹ cm⁻¹	0.28	noticeably activated	bright fluorescence	no fluorescence	gradually increasing fluorescence intensity	could specifically label mRNA of ACTB	no obvious background fluorescence
